The test system of one data set is HeLa. The data set is described as follows: Cytotoxicity against human HeLa cells assessed as inhibition of cell proliferation measured after 48 hrs by MTS assay. The format is functional, cell-based.
Data set [1] has as its system RAW264.7. As to the kind of experiment: Cytotoxicity against mouse RAW264.7 cells assessed as cell proliferation at 10 ug/ml pretreated with LPS for 24 hrs followed by overnight incubation with compound by MTS assay. The format is cell-based. Background: Formazan colour is commonly taken as a measure of viable cells.
Data set [2] relates to RAW264.7. As to the kind of experiment: Antiinflammatory activity against mouse RAW264.7 cells assessed as inhibition of LPS-induced nitric oxide overproduction pretreated with LPS for 24 hrs followed by overnight incubation with compound by Griess assay. The format is functional, cell-based.

By IC50 is commonly meant the concentration needed to halve the response being measured. Turning to `C=C(C)C(=O)O[C@H]1C[C@@]23CO[C@@H](C[C@](C)(/C=C4/OC(=O)C(COC)=C41)O2)[C@@H]3O`, in the data set with HeLa, the IC50 was over 10 µM.

As to `C/C=C(\C)C(=O)O[C@H]1C[C@@]23CO[C@@H](C[C@](C)(/C=C4/OC(=O)C(COC(C)=O)=C41)O2)[C@@H]3O`, in the data set with HeLa, the IC50 was over 10 µM.

With `Cc1c2ccncc2c(C)c2c1[nH]c1ccccc12` [ELLIPTECINE], the IC50 with HeLa turned out to be 2 µM.

Turning to `C/C=C(\C)C(=O)O[C@H]1C[C@@]23CO[C@@H](C[C@](C)(/C=C4/OC(=O)C(COC)=C41)O2)[C@@H]3O`, the IC50 in the data set on HeLa is over 10 µM.

Regarding `C=C(C)C(=O)O[C@H]1C[C@@]23CO[C@@H](C[C@](C)(C[C@@]4(OC)OC(=O)C(COC(C)=O)=C14)O2)[C@@H]3O`, in the data set with HeLa, the IC50 was over 10 µM.

Take `C/C=C(\C)C(=O)O[C@H]1C[C@@]23CO[C@@H](C[C@](C)(C[C@@]4(OC)OC(=O)C(COC(C)=O)=C14)O2)[C@@H]3O`: the IC50 with HeLa is over 10 µM.

As for `C/C=C(\C)C(=O)O[C@H]1C[C@@H](C)[C@@]2(O)CC[C@@](C)(/C=C3/OC(=O)C(COC(C)=O)=C31)O2`, the Activity result in the data set on RAW264.7 [1] is recorded as “Non-Toxic”. For the same compound, the IC50 in the data set on HeLa stood at 32 µM; in the data set with RAW264.7 [2] it was 21 µM.

With `C=C(C)C(=O)O[C@H]1C[C@@H](C)[C@@]2(O)CC[C@@](C)(/C=C3/OC(=O)C(COC(C)=O)=C31)O2`, in the data set with RAW264.7 [1], the Activity result is “Non-Toxic”. Also, the results for the IC50 in the data set with HeLa and in the data set with RAW264.7 [2] were 35 µM and 23 µM, respectively.

Take `C=C(C)C(=O)O[C@H]1C[C@@]23CO[C@@H](C[C@](C)(/C=C4/OC(=O)C(COC(C)=O)=C41)O2)[C@@H]3O`: the IC50 with HeLa is over 10 µM.

Source of the values: ChEMBL document CHEMBL4334477, “Bioactive Sesquiterpene Lactones Isolated from the Whole Plants of Vernonia cinerea” (J Nat Prod, 2019).
